“And” between values parts separate entries of the source, which are not always exact repeats. Equal values may be shown once. Inconclusive results and toxic doses are left out. Rule for the calls: active = survival T/C of 150% or more; inactive = T/C below 125% in these data.
Test system: DBA/2 mice, P1534 leukemia ip, survival T/C
Test: NCI In Vivo Anticancer Drug Screen. Data for tumor model P1534 Leukemia (intraperitoneal) in DBA/2 mice
Details: endpoint: mean survival time, higher = longer survival
Procedure: The antitumor activity of compounds was measured in mice bearing transplantable tumors. Survival or tumor size were measured and the results are expressed as the measurement made in the treated group (T) divided by the measurement made in the vehicle treated control group (C). The tumor model used in this assay is P1534 Leukemia (intraperitoneal) in DBA/2 mice

[1] = dose: 100.0 mg/kg/injection, schedule: Q01DX010 (ip), vehicle: saline
[2] = dose: 2.5 mg/kg/injection, schedule: Q01DX010 (ip), vehicle: saline
[3] = dose: 5.0 mg/kg/injection, schedule: Q01DX010 (ip), vehicle: saline
[4] = dose: 20.0 mg/kg/injection, schedule: Q01DX010 (ip), vehicle: saline
[5] = dose: 10.0 mg/kg/injection, schedule: Q01DX010 (ip), vehicle: saline
[6] = dose: 0.5 mg/kg/injection, schedule: Q01DX010 (ip), vehicle: saline
[7] = dose: 1.0 mg/kg/injection, schedule: Q01DX010 (ip), vehicle: saline
[8] = dose: 2.0 mg/kg/injection, schedule: Q01DX010 (ip), vehicle: saline
[9] = dose: 4.0 mg/kg/injection, schedule: Q01DX010 (ip), vehicle: saline
[10] = dose: 8.0 mg/kg/injection, schedule: Q01DX010 (ip), vehicle: saline
[11] = dose: 16.0 mg/kg/injection, schedule: Q01DX010 (ip), vehicle: saline
[12] = dose: 15.6 mg/kg/injection, schedule: Q01DX010 (ip), vehicle: saline
[13] = dose: 31.3 mg/kg/injection, schedule: Q01DX010 (ip), vehicle: saline
[14] = dose: 6.25 mg/kg/injection, schedule: Q01DX010 (ip), vehicle: saline
[15] = dose: 12.5 mg/kg/injection, schedule: Q01DX010 (ip), vehicle: saline
[16] = dose: 125.0 mg/kg/injection, schedule: Q01DX010 (ip), vehicle: saline
[17] = dose: 250.0 mg/kg/injection, schedule: Q01DX010 (ip), vehicle: saline
[18] = dose: 62.5 mg/kg/injection, schedule: Q01DX010 (ip), vehicle: saline
[19] = dose: 0.25 mg/kg/injection, schedule: Q01DX010 (ip), vehicle: saline

Measured: T/C

N=C(N)N
inactive: [1] 100 % of control | dose: 150.0 mg/kg/injection, schedule: Q01DX010 (ip), vehicle: saline 100 % of control | dose: 215.0 mg/kg/injection, schedule: Q01DX010 (ip), vehicle: saline 100 % of control

O=c1[nH]c(=O)n(C2CC(O)C(CO)O2)cc1F (stereo not drawn)
inactive: [2] 107 % of control and 111 % of control | [3] 111 % of control
active: [4] 153 % of control | dose: 37.5 mg/kg/injection, schedule: Q01DX010 (ip), vehicle: saline 169 % of control

CC1CCOS(=O)O1 (stereo not drawn)
inactive: [5] 92 % of control | [4] 92 % of control

COc1cc([C@@H]2c3cc4c(c(O)c3C[C@H]3COC(=O)[C@@H]32)OCO4)cc(OC)c1OC
inactive: dose: 39.0 micrograms/kg/injection, schedule: Q01DX010 (ip), vehicle: saline 100 % of control | dose: 78.0 micrograms/kg/injection, schedule: Q01DX010 (ip), vehicle: saline 103 % of control | dose: 156.0 micrograms/kg/injection, schedule: Q01DX010 (ip), vehicle: saline 90 % of control

NC(=O)N(CCCl)N=O
inactive: [6] 100 % of control | [7] 100 % of control | [8] 86 % of control

CCNNC(=O)[C@@H]1[C@H](c2cc(OC)c(OC)c(OC)c2)c2cc3c(cc2[C@H](O)[C@H]1CO)OCO3
inactive: [8] 100 % of control | [9] 100 % of control | [10] 96 % of control and 100 % of control and 111 % of control | [11] 100 % of control (2×) and 103 % of control | dose: 32.0 mg/kg/injection, schedule: Q01DX010 (ip), vehicle: saline 103 % of control

NCCCCCCNC(=O)CCC(=O)NCCCCCCN
inactive: [11] 95 % of control | dose: 64.0 mg/kg/injection, schedule: Q01DX010 (ip), vehicle: saline 91 % of control

NC(Cc1ccc(N(CCCl)CCCl)cc1)C(=O)O (stereo not drawn)
inactive: dose: 0.5 mg/kg/injection, schedule: Q01DX010 (ip), vehicle: alkali diluted with saline 102 % of control and 111 % of control | dose: 1.0 mg/kg/injection, schedule: Q01DX010 (ip), vehicle: alkali diluted with saline 104 % of control | dose: 1.25 mg/kg/injection, schedule: Q01DX010 (ip), vehicle: saline 100 % of control and 119 % of control | dose: 2.0 mg/kg/injection, schedule: Q01DX010 (ip), vehicle: alkali diluted with saline 99 % of control | [2] 100 % of control | dose: 4.0 mg/kg/injection, schedule: Q01DX010 (ip), vehicle: alkali diluted with saline 101 % of control | [3] 100 % of control

CN(C)c1ccc(/C=C/c2ccnc3ccccc23)cc1
inactive: [3] 100 % of control and 108 % of control | [5] 100 % of control | [4] 100 % of control and 108 % of control | dose: 40.0 mg/kg/injection, schedule: Q01DX010 (ip), vehicle: saline 100 % of control

Cc1cc(N(CCCl)CCCl)ccc1N=Nc1ccccc1C(=O)O
inactive: [3] 114 % of control and 123 % of control | [5] 118 % of control | [4] 107 % of control and 111 % of control

COc1cc2c(c(OC)c1OC)-c1ccc(OC)c(=O)cc1[C@@H](NC(C)=O)CC2
inactive: dose: 0.01 mg/kg/injection, schedule: Q01DX010 (ip), vehicle: saline 107 % of control | dose: 0.02 mg/kg/injection, schedule: Q01DX010 (ip), vehicle: saline 110 % of control | dose: 0.04 mg/kg/injection, schedule: Q01DX010 (ip), vehicle: saline 114 % of control | dose: 0.08 mg/kg/injection, schedule: Q01DX010 (ip), vehicle: saline 121 % of control

CCNc1nncs1
inactive: [12] 100 % of control | [13] 100 % of control

O=C1C=CC2(CCC23C=CC(=O)O3)O1 (stereo not drawn)
inactive: [14] 100 % of control | [15] 100 % of control | dose: 25.0 mg/kg/injection, schedule: Q01DX010 (ip), vehicle: saline 106 % of control | dose: 50.0 mg/kg/injection, schedule: Q01DX010 (ip), vehicle: saline 86 % of control and 110 % of control

O=C(Nc1ccc(C2=NCCN2)cc1)c1cc(Cl)cc(C(=O)Nc2ccc(C3=NCCN3)cc2)c1
inactive: dose: 140.0 mg/kg/injection, schedule: Q01DX010 (ip), vehicle: saline 96 % of control and 100 % of control | dose: 210.0 mg/kg/injection, schedule: Q01DX010 (ip), vehicle: saline 92 % of control and 107 % of control | dose: 315.0 mg/kg/injection, schedule: Q01DX010 (ip), vehicle: saline 96 % of control and 115 % of control | dose: 473.0 mg/kg/injection, schedule: Q01DX010 (ip), vehicle: saline 103 % of control and 111 % of control

Cn1cnc([N+](=O)[O-])c1Sc1ncnc2nc[nH]c12
inactive: [15] 96 % of control

c1ccc(CCSc2ncnc3nc[nH]c23)cc1
inactive: [16] 100 % of control | [17] 100 % of control | dose: 500.0 mg/kg/injection, schedule: Q01DX010 (ip), vehicle: saline 104 % of control

O=c1[nH]c(=O)n(C2CC(O)C(CO)O2)cc1Br (stereo not drawn)
inactive: [18] 121 % of control | [16] 107 % of control | [17] 96 % of control

O=C1CCC(N2C(=O)c3ccccc3C2=O)C(=O)N1 (stereo not drawn)
inactive: [13] 100 % of control | [18] 96 % of control | [16] 96 % of control | [17] 96 % of control

CSc1ncnc2c1ncn2C1OC(CO)C(O)C1O (stereo not drawn)
inactive: [9] 100 % of control | [10] 100 % of control | [11] 96 % of control and 100 % of control

OC(CBr)C(O)C(O)C(O)CBr (stereo not drawn)
inactive: [1] 100 % of control

C[C@]12CC[C@H](OC3OC(CO)C(O)C(O)C3O)C[C@H]1CC[C@@H]1[C@@H]2CC[C@]2(C)[C@@H](C3=CCOC3=O)CC[C@]12O (stereo partly drawn)
inactive: [6] 100 % of control | [7] 91 % of control

Cn1c(O)c(N=NC(N)=S)c2ccccc21
inactive: [13] 100 % of control | [18] 100 % of control | [16] 103 % of control

CC(=O)c1cccc(NC2C(N)C(NC(=O)N(C)C)(C(C)O)C(C)(O)C2(O)COC(=O)c2c(C)cccc2O)c1 (stereo not drawn)
inactive: [19] 90 % of control

CCCCCC(=O)O[C@]1(C(C)=O)CC[C@H]2[C@@H]3CCC4=CC(=O)CC[C@]4(C)[C@H]3CC[C@@]21C
inactive: dose: 250.0 mg/kg/injection, schedule: Q01DX010 (sc), vehicle: steriod suspending solution 103 % of control | dose: 375.0 mg/kg/injection, schedule: Q01DX010 (sc), vehicle: steriod suspending solution 100 % of control | dose: 500.0 mg/kg/injection, schedule: Q01DX010 (sc), vehicle: steriod suspending solution 100 % of control | dose: 750.0 mg/kg/injection, schedule: Q01DX010 (sc), vehicle: steriod suspending solution 107 % of control

CO[C@@]12[C@H](COC(N)=O)C3=C(C(=O)C(C)=C(N)C3=O)N1C[C@@H]1N[C@@H]12
inactive: [19] 92 % of control | [6] 111 % of control | [7] 103 % of control | [8] 92 % of control

COc1ccc2[nH]c3c(C)c4ccncc4c(C)c3c2c1
inactive: [2] 100 % of control | [3] 93 % of control | [5] 103 % of control | [4] 117 % of control

O=NN(CCCl)C(=O)NCCCl
inactive: dose: 1.57 mg/kg/injection, schedule: Q01DX010 (ip), vehicle: saline 100 % of control and 103 % of control | dose: 3.13 mg/kg/injection, schedule: Q01DX010 (ip), vehicle: saline 103 % of control and 111 % of control | [14] 100 % of control

O=CN(O)CC(=O)O
inactive: [12] 93 % of control | [13] 93 % of control | [18] 96 % of control | [16] 93 % of control

N#CCSc1ncnc2nc[nH]c12
inactive: dose: 15.0 mg/kg/injection, schedule: Q01DX010 (ip), vehicle: saline 89 % of control | dose: 30.0 mg/kg/injection, schedule: Q01DX010 (ip), vehicle: saline 100 % of control | dose: 60.0 mg/kg/injection, schedule: Q01DX010 (ip), vehicle: saline 96 % of control and 100 % of control

— PubChem BioAssay AID314 (DTP/NCI, 2004)
